{"source": "patent US20100331410A1", "about": "“Biaryl Amides” (Asterand UK Limited, priority 2008, published 2010)", "data": [{"units": {"melting point": "°C"}, "values": [{"compound": "NC(=O)COc1cccc(NC(=O)c2cc(-c3cccc(F)c3)ccc2F)c1", "note": "[Compound 3, 3-[(3′-Fluoro-4-fluorobiphenyl-3-carbonyl)amino]phenoxyacetamide]", "melting point": "203 to 206"}, {"compound": "NC(=O)/C=C/c1cccc(NC(=O)c2cc(-c3cccc(F)c3)ccc2F)c1", "note": "[Compound 7, 3-[(3′-Fluoro-4-fluorobiphenyl-3-carbonyl)amino]cinnamamide]", "melting point": "216 to 218"}, {"compound": "COC(=O)/C=C/c1cccc(NC(=O)c2cc(-c3cccc(F)c3)ccc2F)c1", "note": "[Compound 6, 3-[(3′-Fluoro-4-fluorobiphenyl-3-carbonyl)amino]cinnamic acid, methyl ester]", "melting point": "144 to 145"}, {"compound": "CC(C)OC(=O)/C=C/c1cccc(NC(=O)c2cc(-c3cccc(F)c3)ccc2F)c1", "note": "[Compound 5, 3-[(3′-Fluoro-4-fluorobiphenyl-3-carbonyl)amino]cinnamic acid, isopropyl ester]", "melting point": "154 to 155"}, {"compound": "O=C(COc1cccc(NC(=O)c2cc(-c3cccc(F)c3)ccc2F)c1)OCCO", "note": "[Compound 1, 3-[(3′-Fluoro-4-fluorobiphenyl-3-carbonyl)amino]phenoxyacetic acid, ethylene glycol ester]", "melting point": "135 to 137"}, {"compound": "COC(=O)COc1cccc(NC(=O)c2cc(-c3cccc(F)c3)ccc2F)c1", "note": "[Compound 4, 3-[(3′-Fluoro-4-fluorobiphenyl-3-carbonyl)amino]phenoxyacetic acid, methyl ester]", "melting point": "103 to 104"}]}]}
